# Laboratory results taken from patent publication US20230000842A1, “METHODS OF TREATING CARTILAGE DISORDERS THROUGH INHIBITION OF CLK AND DYRK” (SAMUMED, LLC, priority 2019, published 2023).
# Assays:
# CLK2 kinase = CLK2 kinase (Homo sapiens, UniProt P49760); assay: CLK2 kinase activity assay (Z-lyte FRET); format: biochemical; conditions: Z-lyte Ser/Thr 6 peptide, 60 μM ATP, 1 h at room temperature;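 further: FRET read-out as coumarin to fluorescein emission ratio, unphosphorylated peptide as 0% and phosphorylated peptide as 100% controls, duplicate reactions, non-linear regression fit of dose-response curves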
# Sequence of CLK2 kinase (P49760 whole entry): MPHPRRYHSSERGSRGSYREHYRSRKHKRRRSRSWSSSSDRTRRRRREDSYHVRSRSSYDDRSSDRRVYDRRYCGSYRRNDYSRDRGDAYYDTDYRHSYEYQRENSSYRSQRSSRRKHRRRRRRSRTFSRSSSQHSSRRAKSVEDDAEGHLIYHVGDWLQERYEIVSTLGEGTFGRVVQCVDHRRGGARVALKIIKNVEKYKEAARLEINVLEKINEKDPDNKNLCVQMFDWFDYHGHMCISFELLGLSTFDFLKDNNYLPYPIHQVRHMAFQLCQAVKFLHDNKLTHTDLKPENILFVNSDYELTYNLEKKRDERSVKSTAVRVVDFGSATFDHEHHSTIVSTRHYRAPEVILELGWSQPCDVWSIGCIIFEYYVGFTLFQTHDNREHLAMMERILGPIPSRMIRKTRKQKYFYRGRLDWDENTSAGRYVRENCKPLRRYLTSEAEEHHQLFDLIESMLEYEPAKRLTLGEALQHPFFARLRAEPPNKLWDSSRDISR
# [1] = test system: primary human mesenchymal stem cells (hMSCs); assay: Chondrogenesis screening using primary human mesenchymal stem cells; format: cell-based; conditions: Homo sapiens, Mesenchymal stem cells, hMSC chondrogenesis; for Emax: maximum activity relative to TGF-β3 (10 ng/mL) positive control, read-out: Max. Activity as % TGF-β3 activity
# Summary of the method: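 Primary hMSCs at passage 3–6 were treated across compound concentrations, with TGF-β3 as positive control. Chondrogenic nodule area per well was normalized to 3 DMSO wells on the same plate (fold over DMSO, 2–3 replicates). EC50, maximum activity and the dose reaching it were derived.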
# [2] = test system: MMP-3 levels in supernatant of chondrocytes stimulated with IL1-β; assay: Chondrocyte protection assay compound screening (MMP-3 LANCE Ultra); format: cell-based, human; conditions: IL1-β 10 ng/mL overnight, 11-point curves from 3 μM to 0.05 nM; for Emax: read-out: Maximum % Inhibition
# Method: Human Chondrocyte Cell Culture: Primary human chondrocytes were purchased from Lonza (Walkersville, Md.) and expanded in Chondrocyte Growth Media (CGM, Lonza). Cells between passage 2 and 5 were used for the experiments.
# Chondrocytes were plated at 8,000 cells/well in 40 μL/well Chondrocyte Differentiation Medium (Lonza; 500 mL Basal Medium, 25 mL FBS, 0.5 mL GA-1000, 1 mL R3-IGF, 2.5 mL bFGF, 0.5 mL Transferrin, and 1 mL Insulin). After 2 hours of incubation at 37° C. and 5% CO2, IL1-β (Peprotech, Rocky Hill, N.J.) was added to a final concentration of 10 ng/mL. 11 wells in 1 row were left unstimulated for normalization and calculating EC50 values. Cells were incubated at 37° C. and 5% CO2 overnight. Assay plates are spun, 25 μl of supernatant media was collected using (S2 pipettor, Apricot Designs). Cells were lysed using 10 μL of (Cell Titer-Glo, Promega). Luminescent signal detected using an En Vision Multilabel reader (Perkin Elmer). MMP-3 levels were measured in supernatant. Supernatant diluted 1:7 in DMEM. MMP-3 levels in the supernatant were measured using MMP-3 LANCE Ultra detection kit (Perkin Elmer). Briefly, 5 μL of diluted supernatant was transferred to low-volume 384 well plates using (S2 pipettor, Apricot Designs). A standard curve was prepared using MMP-3 analyte (range […]). 1.7 μL of 8× mix of Eu-labelled anti-MMP-3 antibody and ULight labelled anti-MMP-3 antibody was added to the plates using Mantis Liquid handler (Formulatrix). Plates were incubated overnight at room temperature. LANCE signal was detected using an EnVision Multilabel reader (Perkin Elmer), equipped with TR-FRET using excitation wavelength of 320 nm and two emission wavelengths of 615 nm and 665 nm. Data was analyzed according to the kit protocol, using the ratio of […] and the standard curve values were used to calculate the amount of MMP3 in the […] (in pg/ml). The normalized averages (fold change over IL1-β stimulated) for each compound concentration were calculated. EC50 and maximum % inhibition values were calculated using the dose-response nonlinear regression curve-fit in Dotmatics.
# [3] = test system: Wnt pathway activity (SW480 colon carcinoma cells stably expressing the Sp5-Luc reporter); assay: Wnt pathway activity screening assay (Sp5-Luc reporter gene assay); conditions: Homo sapiens, SW480, Table 4; SW480 cells stably expressing Sp5-Luc reporter, 10-point dose-response from 10 μM, 36 to 48 hours
# CLK3 kinase = CLK3 kinase (Homo sapiens, UniProt P49761); assay: CLK3 kinase activity assay (Z-lyte FRET); format: biochemical; conditions: Z-lyte Ser/Thr 18 peptide, 156 μM ATP, 1 h at room temperature;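 further: kinase activity read as coumarin/fluorescein emission ratio by FRET, unphosphorylated peptide as 0% and phosphorylated peptide as 100% control, values from non-linear regression of dose-response curves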
# Sequence of CLK3 kinase (P49761 whole entry): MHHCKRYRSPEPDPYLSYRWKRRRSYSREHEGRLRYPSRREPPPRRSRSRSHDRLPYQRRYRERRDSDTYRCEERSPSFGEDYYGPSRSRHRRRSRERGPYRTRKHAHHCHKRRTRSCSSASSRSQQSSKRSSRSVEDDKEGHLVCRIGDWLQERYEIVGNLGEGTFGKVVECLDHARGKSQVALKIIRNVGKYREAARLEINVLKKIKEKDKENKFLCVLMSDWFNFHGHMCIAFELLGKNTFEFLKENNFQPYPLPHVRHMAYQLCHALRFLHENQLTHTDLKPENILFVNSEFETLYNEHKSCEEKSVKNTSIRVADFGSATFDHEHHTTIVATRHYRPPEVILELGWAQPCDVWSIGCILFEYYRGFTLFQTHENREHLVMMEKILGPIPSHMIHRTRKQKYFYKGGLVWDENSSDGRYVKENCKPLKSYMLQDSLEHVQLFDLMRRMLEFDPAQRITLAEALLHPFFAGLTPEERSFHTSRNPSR
Structure (SMILES),EC50 (CLK2 kinase) [nM],EC50 [3] [nM],"EC50 ([1]; concentration required to induce 50% levels of chondrogenesis with TGF-β3 as positive control, read-out: Conc (nM) of 50% TGF-β3 activity) [nM]",EC50 (CLK3 kinase) [nM],Emax [1] [%],"EC50 ([2]; Homo sapiens, Chondrocyte) [nM]","Emax ([2]; Homo sapiens, Chondrocyte) [%]",EC50 [2] [nM],Maximum % Inhibition [2] [%]
CN(C)CCOc1cc(C(=O)Nc2cc3cc(-c4cnn(C)c4)ccc3cn2)ccn1 [compound 544],2,,,31,,1010,63.5,,
CN1CCN(c2cc(C(=O)Nc3cc4cc(-c5cnn(C)c5)c(F)cc4cn3)ccn2)CC1 [compound 546],2,,,21,,0.4,97.3,,
CN1CCN(c2cc(C(=O)Nc3cc4c(Cl)c(-c5cnn(C)c5)ccc4cn3)ccn2)CC1 [compound 547],3,,,43,,898,52.1,,
Cc1cc(C(=O)Nc2cc3cc(-c4cnn(C)c4)ccc3cn2)cc(N2CCN(C)CC2)n1 [compound 548],2,,,26,,≥ 3000,62.4,,
Cn1cc(-c2ccc3cnc(NC(=O)c4ccnc(N5CC6CC5CN6)c4)cc3c2)cn1 (stereo not drawn) [compound 549],3,,,26,,≥ 3000,69,,
CN1CCN(c2ccc(C(=O)Nc3cc4cc(-c5cnn(C)c5)ccc4cn3)cn2)CC1 [compound 551],,,,78,,,,1060,100.0
CN(C)C1CCN(c2cc(C(=O)Nc3cc4cc(-c5cnn(C)c5)ccc4cn3)ccn2)CC1 [compound 552],,,,9,,697,83.2,,
Cn1cc(-c2ccc3cnc(NC(=O)c4ccc5c(c4)CNCC5)cc3c2)cn1 [compound 557],2,,,39,,1630,50.5,,
Cn1cc(-c2ccc3cnc(NC(=O)C4=CNC5C=CC=CC5=C4)cc3c2)cn1 (stereo not drawn) [compound 559],4,,,66,,19.1,41.2,,
Cn1cc(-c2ccc3cnc(NC(=O)c4ccc5cnccc5c4)cc3c2)cn1 [compound 560],4,,,85,,≥ 3000,63.6,,
CN1CCN(c2cc(C(=O)Nc3cc4cc(-c5cnn(C6CC6)c5)ccc4cn3)ccn2)CC1 [compound 565],6,,,71,,12.2,76.6,,
Cn1ncc(-c2ccc3cnc(NC(=O)c4ccc(OC(F)F)cc4)cc3c2)c1CO [compound 567],8,,,261,,1370,69.8,,
CN1CCC2(CC1)CN(c1cc(C(=O)Nc3cc4cc(-c5cnn(C)c5CO)ccc4cn3)ccn1)C2 [compound 568],3,,,44,,≥ 3000,42.7,,
CN1CCN(c2ccc(C(=O)Nc3cc4cc(-c5cnn6c5CN(CCF)CC6)ccc4cn3)cn2)CC1 [compound 576],2,,,81,,≥ 3000,62.6,,
Cn1cncc1-c1ccc2cnc(NC(=O)c3ccnc(N4CCN(C5CC5)CC4)c3)cc2c1 [compound 582],2,,,18,,≥ 3000,52.2,,
Cc1ncc(-c2ccc3cnc(NC(=O)c4ccc(OC(C)C)cc4)cc3c2)n1C [compound 588],2,,,70,,10.5,74.7,,
CN1CCN(c2cc(C(=O)Nc3cc4cc(-c5cncs5)ccc4cn3)ccn2)CC1 [compound 591],,,,20,22.3,423,100,,
Cc1nnc(-c2ccc3cnc(NC(=O)c4ccnc(N(C)C5CCN(C)CC5)c4)cc3c2)s1 [compound 595],,,,19,25.7,2.7,86.2,,
O=C(Nc1cncc(-c2cc3c(-c4cc5c(-c6cccc(F)c6)ccnc5[nH]4)n[nH]c3cn2)c1)C1CC1 [compound 636],9,97,,,,298,64.5,,
CC(F)(F)CN1CCC(C(=O)Nc2cc3cc(-c4cnco4)cnc3cn2)CC1 [compound 642],9780,> 10000,,,,≥ 3000,29.5,,

# Now from value to molecule, other results behind:
EC50 (CLK2 kinase) [nM],EC50 [3] [nM],"EC50 ([1]; concentration required to induce 50% levels of chondrogenesis with TGF-β3 as positive control, read-out: Conc (nM) of 50% TGF-β3 activity) [nM]",EC50 (CLK3 kinase) [nM],Structure (SMILES),Emax [1] [%],"EC50 ([2]; Homo sapiens, Chondrocyte) [nM]","Emax ([2]; Homo sapiens, Chondrocyte) [%]",EC50 [2] [nM],Maximum % Inhibition [2] [%]
72,479,,,O=C(Nc1c[nH]nc1C(=O)Nc1cncc(-c2cccc(F)c2)c1)c1cncc(F)c1 [compound 2],81.5,0.4,58.2,,
15,5.7,300,,COc1cncc(C(=O)Nc2c[nH]nc2C(=O)Nc2ccc(N3CCC(F)(F)C3)nc2)c1 [compound 6],124,2.2,42.1,,
3,,,41,CN(C)Cc1ccc(C(=O)Nc2cc3cc(-c4cnn(C)c4)ccc3cn2)cc1 [compound 540],,47.4,80.7,,
,,,36,CN1CCN(c2ccc(C(=O)Nc3cc4cc(-c5cnn(C)c5)ccc4cn3)cn2)CC1 [compound 542],,,,9.5,47.6
3,,,60,CN(C)CCNc1cc(C(=O)Nc2cc3cc(-c4cnn(C)c4)ccc3cn2)ccn1 [compound 543],,306,81.8,,
,,,28,CN1CCCN(c2cc(C(=O)Nc3cc4cc(-c5cnn(C)c5)ccc4cn3)ccn2)CC1 [compound 550],,≥ 3000,66.9,,
2,,,280,CN1CCN(c2ccc(C(=O)N3CCN(c4cc(C(=O)Nc5cc6cc(-c7cnn(C)c7)ccc6cn5)ccn4)CC3)cn2)CC1 [compound 553],,304,52.3,,
1,,,16,CN1CCC2(CC1)CN(c1cc(C(=O)Nc3cc4cc(-c5cnn(C)c5)ccc4cn3)ccn1)C2 [compound 554],,≥ 3000,53.7,,
2,,,38,Cn1cc(-c2ccc3cnc(NC(=O)c4ccnc(OC5CNC5)c4)cc3c2)cn1 [compound 556],,154,100,,
3,,,49,Cn1cc(-c2ccc3cnc(NC(=O)c4ccc5c(c4)ncn5C)cc3c2)cn1 [compound 558],,≥ 3000,46.9,,
,,,34,CN1CCN(c2cc(C(=O)Nc3cc4cc(-c5cnn(C)c5N)ccc4cn3)ccn2)CC1 [compound 566],,11.5,43.8,,
2,,,8,Cn1ncc(-c2ccc3cnc(NC(=O)c4ccnc(N5CCOCC5)c4)cc3c2)c1CN1CCOCC1 [compound 573],,≥ 3000,70,,
,,,48,CN1CCc2cc(C(=O)Nc3cc4cc(-c5cn(C)nn5)ccc4cn3)ccc2C1 [compound 578],,≥ 3000,37.6,,
2,,,27,CN1Cc2ccc(C(=O)Nc3cc4cc(-c5cncn5C)ccc4cn3)cc2C1 [compound 583],,≥ 3000,67.5,,
4,,,40,NC1CN(c2cc(C(=O)Nc3cc4cc(-c5cnco5)ccc4cn3)ccn2)C1 [compound 590],,≥ 3000,33.2,,
1900,> 10000,,,O=C(Nc1cc2cc(-c3cncs3)ccc2cn1)C1(F)CCCCC1 [compound 637],,≥ 3000,39.1,,
